Assay results as given in patent US11319347B2, “Peptide compound and method for producing same, composition for screening use, and method for selecting peptide compound” (FUJIFILM Corporation, priority 2017, dated 2022).
Starred links: 1 amine or outer side, 2 acyl side, 3 side chain; linkers in the order of their positions; H or OH if unused. Positions of bridges follow the written chain, without caps; N, C: chain ends. Non-standard residues stand in square brackets, D forms with d. Residues, ends and D or L forms follow the SMILES beside them. Phe(3-(4R-CO-2-thiazolinyl)) = O=C([C@H](Cc1cccc(C2=N[C@H](C(=O)[*:3])CS2)c1)N[*:1])[*:2]; dCha = N[C@H](CC1CCCCC1)C(=O)O; Nle = CCCC[C@H](N)C(=O)O

Experiment: Membrane permeability of synthesized cyclic peptides by PAMPA (Measurement Method A: 1 μmol/L; Method B: 10 μmol/L)
Type: in vitro ADME
Settings: Measurement method A, 25° C., 4 hours
Procedure: Evaluation of membrane permeability of synthesized cyclic peptide by PAMPA method In order to compare and examine the membrane permeability of the synthesized cyclic peptide, parallel artificial membrane permeability assay (PAMPA) was carried out.
An artificial phospholipid membrane was produced by adding 5 μL of a phospholipid organic solvent solution consisting of L-α-phosphatidylcholine (Avanti Polar Lipids, Inc., Cat. 840051P, 1.67%), 1,2-dioleoyl-sn-glycero-3-phospho-L-serine (Avanti Polar Lipids, Inc., Cat. 840035P, 0.33%), and n-dodecane special grade (Wako Pure Chemical Industries, Ltd., 047-21612)/1-octanol reagent special grade (Kanto Chemical Co., Inc., Cat. 31013-08)=10:1 to Filter Plate (Merck Millipore Corporation, Cat. MAIPN4550).
475 μL of 50 mmol/L potassium phosphate buffer (KPB, pH 7.4 or pH 6.5) was added to 25 μL of a DMSO solution containing the compound at a concentration of 20 μmol/L, so that the compound was diluted to a final concentration of 1 μmol/L. 300 μL of the compound solution was added to the lower side (donor side) of PAMPA 96-well plate (Filter Plate (Merck Millipore Corporation, Cat. MAIPN4550)) with an artificial phospholipid membrane being interposed therebetween. 200 μL of 5% DMSO KPB (pH 7.4) was added to the upper side (acceptor side) with the artificial phospholipid membrane being interposed therebetween. A permeation test through an artificial phospholipid membrane was carried out at 25° C. for 4 hours. The compound concentration in the solution in the donor plate and the acceptor plate was measured by LC/MS/MS, and the membrane permeation rate (Pe) of the compound was calculated from the following formula, assuming that C0 is an initial compound concentration in donor solution, t is a test time, A is a membrane filter area=0.3 cm^2, VD is a donor solution amount=300 μL, VA is an acceptor solution amount=200 μL, and CD(t) is a compound concentration in donor solution at time t, CA(t) is a compound concentration in acceptor solution at time t, and Cequilibrium=[CD(t)*VD+CA(t)*VA]/(VD+VA).
475 μL of 50 mmol/L potassium phosphate buffer (KPB, pH 7.4 or pH 6.5) was added to 25 μL of a DMSO solution containing the compound at a concentration of […], so that the compound was diluted to a final concentration of 10 μmol/L. The compound solution was added 300 μL each to the lower side (donor side) of an artificial phospholipid membrane of PAMPA 96-well plate (Filter Plate (Merck Millipore Corporation, Cat. MAIPN4550)). 200 μL of 5% DMSO KPB (pH 7.4) was added to the upper side (acceptor side) with the artificial phospholipid membrane being interposed therebetween. A permeation test through an artificial phospholipid membrane was carried out at 25° C. for 4 hours. The compound concentration in the solution in the donor plate and the acceptor plate was measured by LC/MS/MS, and the membrane permeation rate (Pe) of the compound was calculated from the following formula, assuming that Co is an initial compound concentration in donor solution, t is a test time, A is a membrane filter area=0.3 cm^2, VD is a donor solution amount=300 μL, VA is an acceptor solution amount=200 μL, and CD(t) is a compound concentration in donor solution at time t, CA(t) is a compound concentration in acceptor solution at time t, and Cequilibrium=[CD(t)*VD+CA(t)*VA]/(VD+VA).
The membrane permeability (Pe(10^−6 cm/s)) obtained by this method is described in the following table.
(§1) Evaluation standards are as follows.

Row | SMILES | Pe(10^−6 cm/sec)
1 | CCCC[C@@H]1NC(=O)[C@H](CCCCN)NC(=O)[C@H](CC(C)C)NC(=O)[C@H](CC(C)C)NC(=O)[C@@H](NC(C)=O)CSSC[C@@H](C(N)=O)NC(=O)[C@H](Cc2ccccc2)NC(=O)[C@H](C)NC(=O)[C@H](C)NC(=O)[C@@H]2CCCN2C1=O [9-4] (Ac-CLLK[Nle]PAAFC-NH2; disulfide 1-10) | Below the limit
2 | C[C@@H]1NC(=O)Cn2cc(nn2)C[C@@H](C(N)=O)NC(=O)[C@H]([C@@H](C)O)NC(=O)[C@H](CCCCN)NC(=O)[C@@H](Cc2c[nH]c3ccccc23)NC(=O)[C@H](Cc2ccccc2)NC1=O [10-4] | − (0.01≤Pe (10^−6 cm/s))
3 | N=C(N)NCCC[C@@H]1NC(=O)[C@H](Cc2c[nH]c3ccccc23)NC(=O)[C@@H](CC2CCCCC2)NC(=O)[C@@H]2CCCN2C(=O)[C@@H]2CSC(=N2)c2coc(n2)-c2csc(n2)C[C@@H](C(N)=O)NC1=O [a-1-10] | +++ (0.5<Pe (10^−6 cm/s))
4 | C[C@@]12CSC(=N1)c1cc(cs1)C[C@@H](C(N)=O)NC(=O)[C@H](CCCNC(=N)N)NC(=O)[C@H](Cc1c[nH]c3ccccc13)NC(=O)[C@@H](CC1CCCCC1)NC(=O)C1CCCN1C2=O (stereo partly drawn) [a-1-1] | +++ (0.5<Pe (10^−6 cm/s))
5 | C[C@@H]1NC(=O)CSC[C@@H](C(N)=O)NC(=O)[C@@H](Cc2ccccc2)NC(=O)CNC(=O)CNC(=O)[C@@H](Cc2ccc(O)cc2)NC1=O [7-2] ({CH2CO}-A[dY]GG[dF]C-NH2; thioether N-6) | + (0.01<Pe (10^−6 cm/s)≤0.2)
6 | CC(=O)N[C@H]1CSSC[C@@H](C(N)=O)NC(=O)[C@H]([C@@H](C)O)NC(=O)[C@H](CCCCN)NC(=O)[C@@H](Cc2c[nH]c3ccccc23)NC(=O)[C@H](Cc2ccccc2)NC1=O [9-3] (Ac-CF[dW]KTC-NH2; disulfide 1-6) | Below the limit
7 | CC(C)C[C@@H]1NC(=O)[C@@H](C(C)C)NC(=O)[C@H](C)NC(=O)CSC[C@@H](C(N)=O)NC(=O)[C@@H](CCC(=O)O)NC(=O)[C@@H](Cc2c[nH]c3ccccc23)NC1=O [7-4] ({CH2CO}-A[dV]L[dW][dE]C-NH2; thioether N-6) | + (0.01<Pe (10^−6 cm/s)≤0.2)
8 | N=C(N)NCCC[C@@H]1NC(=O)[C@H](Cc2c[nH]c3ccccc23)NC(=O)[C@@H](CC2CCCCC2)NC(=O)[C@@H]2CCCN2C(=O)[C@@H]2CSC(=N2)C2=Cc3ccc(cc3S2)C[C@@H](C(N)=O)NC1=O [2-2] | +++ (0.5<Pe (10^−6 cm/s))
9 | N=C(N)NCCC[C@@H]1NC(=O)[C@H](Cc2c[nH]c3ccccc23)NC(=O)[C@@H](CC2CCCCC2)NC(=O)[C@@H]2CCCN2C(=O)[C@@H]2CSC(=N2)c2cn(nn2)C[C@@H](C(N)=O)NC1=O [a-1-2] | ++ (0.2<Pe (10^−6 cm/s)≤0.5)
10 | CCCC[C@@H]1NC(=O)[C@H](CCCCN)NC(=O)[C@H](CC(C)C)NC(=O)[C@H](CC(C)C)NC(=O)[C@H](C)NC(=O)CSC[C@@H](C(N)=O)NC(=O)[C@H](Cc2ccccc2)NC(=O)[C@H](CO)NC(=O)[C@H](C)NC(=O)[C@@H]2CCCN2C1=O [7-6] ({CH2CO}-ALLK[Nle]PASFC-NH2; thioether N-10) | Below the limit
11 | CCCC[C@@H]1NC(=O)[C@H](CCCCN)NC(=O)C(CC(C)C)NC(=O)[C@H](CC(C)C)NC(=O)[C@@H]2CSC(=N2)c2cc(cs2)C[C@@H](C(N)=O)NC(=O)C(Cc2ccccc2)NC(=O)[C@H](C)NC(=O)[C@H](C)NC(=O)[C@@H]2CCCN2C1=O (stereo partly drawn) [4-8] | ++ (0.2<Pe (10^−6 cm/s)≤0.5)
12 | CC(C)C[C@@H]1NC(=O)[C@@H](C(C)C)NC(=O)[C@@H]2CSC(=N2)c2cccc(c2)C[C@@H](C(N)=O)NC(=O)[C@@H](CCC(=O)O)NC(=O)[C@@H](Cc2c[nH]c3ccccc23)NC1=O [5-1] ([dV]L[dW][dE][Phe(3-(4R-CO-2-thiazolinyl))]-NH2; lactam N-5) | +++ (0.5<Pe (10^−6 cm/s))
13 | N=C(N)NCCC[C@@H]1NC(=O)[C@H](Cc2c[nH]c3ccccc23)NC(=O)[C@@H](CC2CCCCC2)NC(=O)[C@@H]2CCCN2C(=O)[C@@H]2CSC(=N2)c2csc(n2)-c2csc(n2)C[C@@H](C(N)=O)NC1=O [a-1-11] | +++ (0.5<Pe (10^−6 cm/s))
14 | CC(C)C[C@@H]1NC(=O)[C@@H](C(C)C)NC(=O)[C@@H]2CSC(=N2)c2cc(cs2)C[C@@H](C(N)=O)NC(=O)[C@@H](CCC(=O)O)NC(=O)[C@@H](Cc2c[nH]c3ccccc23)NC1=O [4-4] | ++ (0.2<Pe (10^−6 cm/s)≤0.5)
15 | N=C(N)NCCC[C@@H]1NC(=O)[C@H](Cc2c[nH]c3ccccc23)NC(=O)[C@@H](CC2CCCCC2)NC(=O)[C@@H]2CCCN2C(=O)[C@@H]2CSC(=N2)c2ccc(cc2)[C@@H](C(N)=O)NC1=O [a-1-19] | +++ (0.5<Pe (10^−6 cm/s))
16 | CCCC[C@@H]1NC(=O)[C@H](CCCCN)NC(=O)C(CC(C)C)NC(=O)[C@H](CC(C)C)NC(=O)[C@@H]2CSC(=N2)c2cc(cs2)C[C@@H](C(N)=O)NC(=O)C(Cc2ccccc2)NC(=O)[C@H](CO)NC(=O)[C@H](C)NC(=O)[C@@H]2CCCN2C1=O (stereo partly drawn) [4-9] | + (0.01<Pe (10^−6 cm/s)≤0.2)
17 | C[C@@H]1NC(=O)CC[C@@H](C(N)=O)NC(=O)[C@H](CCCNC(=N)N)NC(=O)[C@H](Cc2c[nH]c3ccccc23)NC(=O)[C@@H](CC2CCCCC2)NC(=O)[C@@H]2CCCN2C1=O [8-1] (AP[dCha]WRE-NH2; lactam N-6) | + (0.01<Pe (10^−6 cm/s)≤0.2)

Same assay, conditions: Measurement method B (10 μmol/L), 25° C., 4 hours

Row | SMILES | Pe(10^−6 cm/sec)
18 | N=C(N)NCCC[C@@H]1NC(=O)[C@H](Cc2c[nH]c3ccccc23)NC(=O)[C@@H](CC2CCCCC2)NC(=O)[C@@H]2CCCN2C(=O)[C@@H]2CSC(=N2)c2cn3cc(cnc3n2)-c2cccc(c2)C[C@@H](C(N)=O)NC1=O [a-1-16] | ++ (0.2<Pe (10^−6 cm/s)≤0.5)
19 | N=C(N)NCCC[C@@H]1NC(=O)[C@H](Cc2c[nH]c3ccccc23)NC(=O)[C@@H](CC2CCCCC2)NC(=O)[C@@H]2CCCN2C(=O)[C@@H]2CSC(=N2)c2cn3nc(ccc3n2)-c2cccc(c2)C[C@@H](C(N)=O)NC1=O [a-1-15] | ++ (0.2<Pe (10^−6 cm/s)≤0.5)
20 | N=C(N)NCCC[C@@H]1NC(=O)[C@H](Cc2c[nH]c3ccccc23)NC(=O)[C@@H](CC2CCCCC2)NC(=O)[C@@H]2CCCN2C(=O)[C@@H]2CSC(=N2)c2cn(cn2)-c2ccc(cc2)C[C@@H](C(N)=O)NC1=O [a-1-5] | ++ (0.2<Pe (10^−6 cm/s)≤0.5)

Experiment: Metabolic stability of cyclic peptides in human liver microsomes (HLM residual rate)
Type: in vitro ADME
Settings: 1 μmol/L, human liver microsomes 0.5 mg protein/mL, 37° C., 20 minutes, NADPH and UDPGA
Procedure: Test of metabolic stability of cyclic peptide in human liver microsome
An experiment using human liver microsomes (HLMs) was carried out in order to compare and examine the metabolic stability of the synthesized cyclic peptides.
The compound with a final concentration of 1 μmol/L was incubated in human liver microsomes (BD Cat #452117) prepared to a final concentration of 0.5 mg protein/mL using 100 mmol/L phosphate buffer (pH 7.4) at 37° C. for 20 minutes in the presence of reduced nicotinamide adenine dinucleotide phosphate (NADPH) and uridine 5′-diphosphate-α-D-glucuronic acid (UDPGA). Deproteinization treatment with acetonitrile was carried out, the amount of unaltered substance remaining was quantified using LC/MS/MS, and the residual rate (%) in 20 minutes was calculated. The HLM residual rate (%) obtained by this method is described in the following table.
as §1

Row | SMILES | HLM residual rate
21 | N=C(N)NCCC[C@@H]1NC(=O)[C@H](Cc2c[nH]c3ccccc23)NC(=O)[C@@H](CC2CCCCC2)NC(=O)[C@@H]2CCCN2C(=O)[C@@H]2CSC(=N2)c2n[nH]cc2C[C@@H](C(N)=O)NC1=O [2-20] | ++ (40%<HLM residual rate (%)≤60%)
22 | N=C(N)NCCC[C@@H]1NC(=O)[C@H](Cc2c[nH]c3ccccc23)NC(=O)[C@@H](CC2CCCCC2)NC(=O)[C@@H]2CCCN2C(=O)[C@@H]2CSC(=N2)c2ccc(nn2)C[C@@H](C(N)=O)NC1=O [2-15] | ++ (40%<HLM residual rate (%)≤60%)
23 | N=C(N)NCCC[C@@H]1NC(=O)[C@H](Cc2c[nH]c3ccccc23)NC(=O)[C@@H](CC2CCCCC2)NC(=O)[C@@H]2CCCN2C(=O)[C@@H]2CSC(=N2)c2cncc(n2)C[C@@H](C(N)=O)NC1=O [2-14] | +++ (60%<HLM residual rate (%))
24 | N=C(N)NCCC[C@@H]1NC(=O)[C@H](Cc2c[nH]c3ccccc23)NC(=O)[C@@H](CC2CCCCC2)NC(=O)[C@@H]2CCCN2C(=O)[C@@H]2CSC(=N2)c2cc(ccn2)C[C@@H](C(N)=O)NC1=O [2-8] | +++ (60%<HLM residual rate (%))
